Key:
Conditions in all cases: incubation time: 72 h
[1] = tested on: MDA-MB-453; assay: normalised viability (% of control), CellTiter-Blue; higher = more viable cells (about 100 = DMSO control)
Procedure, shortened: (§1)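 After 72 h on compound-loaded 384-well plates, breast cancer cell lines received 2.5 µl CellTiter-Blue reagent for 2 h at 37 °C. Fluorescence at 560/590 nm was scaled per plate so that vehicle was 100 and a positive kill control was 0. The value stands for normalised viability at a single listed concentration of the series.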

[2] = tested on: CAL-148; assay: as above
Procedure, shortened: as §1

[3] = tested on: Hs578T; assay: as above
Procedure, shortened: as §1

[4] = tested on: CAL-85-1; assay: as above
Procedure, shortened: as §1

[5] = tested on: DU-4475; assay: as above
Procedure, shortened: as §1

[6] = tested on: BT-474; assay: as above
Procedure, shortened: as §1

[7] = tested on: HDQ-P1; assay: as above
Procedure, shortened: as §1

[8] = tested on: MDA-MB-231; assay: as above
Procedure, shortened: as §1

[9] = tested on: MFM-223; assay: as above
Procedure, shortened: as §1

[10] = tested on: CAL-120; assay: as above
Procedure, shortened: as §1

[11] = tested on: CAL-51; assay: as above
Procedure, shortened: as §1

[12] = tested on: BT-549; assay: as above
Procedure, shortened: as §1

[13] = tested on: MDA-MB-468; assay: as above
Procedure, shortened: as §1

[14] = tested on: MDA-MB-436; assay: as above
Procedure, shortened: as §1

[15] = tested on: CAL-148; assay: drug sensitivity score (DSS), CellTiter-Glo (DSS (AUC-based score)); higher = stronger drug effect (viability inhibition or cytotoxicity); extreme values may be limits of the assay
Procedure, shortened: (§2)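 Normalisation on every plate relied on 0.1 % DMSO and a positive kill control. The plates, 384-well format, held compound at 5 concentrations 10-fold apart across a compound-specific 10,000-fold range, and breast cancer cell lines in 20 µl suspension were incubated on them for 72 h before CellTox Green and then CellTiter-Glo readings. The drug sensitivity score derives from the area under the fitted dose-response curve.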

[16] = tested on: Hs578T; assay: as above
Procedure, shortened: as §2

[17] = tested on: CAL-85-1; assay: as above
Procedure, shortened: as §2

[18] = tested on: BT-474; assay: as above
Procedure, shortened: as §2

[19] = tested on: MCF-10A; assay: as above
Procedure, shortened: as §2

[20] = tested on: MFM-223; assay: as above
Procedure, shortened: as §2

[21] = tested on: CAL-120; assay: as above
Procedure, shortened: as §2

[22] = tested on: CAL-51; assay: as above
Procedure, shortened: as §2

[23] = tested on: HCC1937; assay: as above
Procedure, shortened: as §2

[24] = tested on: HCC1143; assay: as above
Procedure, shortened: as §2

CS(=O)(=O)OCCCCOS(C)(=O)=O [Busulfan]
normalised viability [%]
Conditions	30 nM	100 nM	300 nM	1000 nM	10000 nM	100000 nM
[1]	95.9	–	101	104	–	–
[2]	124	–	111	115	–	–
[3]	–	103	–	–	101	85.7
[4]	106	–	101	108	–	–
[5]	96.1	–	89.2	94.7	–	–
[6]	–	107	–	–	114	108
[7]	109	–	113	94.4	–	–
[8]	–	94.3	–	–	95.4	94.3
[9]	–	108	–	–	95.7	99.1
[10]	–	110	–	–	105	88.1
[11]	103	–	95.4	94.6	–	–
[12]	–	84	–	–	92.4	68.2
[13]	–	99.1	–	–	109	90.5
[14]	–	106	–	–	95.2	82.9

Conditions	drug sensitivity score
[15]	0
[16]	0
[17]	0
[18]	0.000307
[19]	0
[20]	0
[21]	0
[22]	0
[23]	0
[24]	0

C#Cc1cccc(Nc2ncnc3cc(OC)c(OCCCCCCC(=O)NO)cc23)c1 [CUDC-101]
normalised viability [%]
Conditions	3 nM	10 nM	30 nM	100 nM	1000 nM	10000 nM
[1]	99.7	–	67.3	65.3	–	–
[2]	90.4	–	89.8	85.2	–	–
[3]	–	91.3	–	–	38.2	5.55
[4]	89	–	75.5	91	–	–
[5]	84	–	84.7	80.8	–	–
[6]	–	108	–	–	28.2	3.84
[7]	98.9	–	93.3	71.5	–	–
[8]	–	87.8	–	–	46	3.42
[9]	–	75.1	–	–	20.4	2.11
[10]	–	82.3	–	–	38.3	9.22
[11]	117	–	108	105	–	–
[12]	–	90.3	–	–	64.6	9.13
[13]	–	100	–	–	25.5	8.4
[14]	–	94.7	–	–	53.9	12

Conditions	drug sensitivity score
[15]	10.1
[16]	8.01
[17]	19.7
[18]	7.85
[19]	17.5
[20]	15
[21]	5.5
[22]	12.7
[23]	8.33
[24]	11.1

COc1cccc2c1C(=O)c1c(O)c3c(c(O)c1C2=O)C[C@@](O)(C(C)=O)C[C@@H]3O[C@H]1C[C@H](N)[C@H](O)[C@H](C)O1 [Daunorubicin]
normalised viability [%]
Conditions	0.3 nM	1 nM	3 nM	10 nM	100 nM	1000 nM
[1]	110	–	114	97	–	–
[2]	88.5	–	106	77.6	–	–
[3]	–	111	–	–	64.1	6.42
[4]	87.3	–	86.8	89.1	–	–
[5]	84.7	–	86.3	70.7	–	–
[6]	–	118	–	–	80.3	17.3
[7]	133	–	94.5	97.3	–	–
[8]	–	101	–	–	38.4	8.64
[9]	–	108	–	–	104	26.7
[10]	–	80.3	–	–	35.9	9.51
[11]	97.1	–	92.9	88.2	–	–
[12]	–	87	–	–	59	11
[13]	–	102	–	–	52.2	6.86
[14]	–	100	–	–	50.4	17.3

Conditions	drug sensitivity score
[15]	10
[16]	4.81
[17]	4.68
[18]	7.33
[19]	2.11
[20]	1.59
[21]	4.35
[22]	12
[23]	2.19
[24]	3.23

CN1CCN(c2ccc3nc(-c4c(N)c5c(F)cccc5[nH]c4=O)[nH]c3c2)CC1 [Dovitinib]
normalised viability [%]
Conditions	3 nM	10 nM	30 nM	100 nM	1000 nM	10000 nM
[1]	114	–	82.3	84	–	–
[2]	91.6	–	95.5	89.6	–	–
[3]	–	106	–	–	99.3	96
[4]	85.3	–	86.4	97.5	–	–
[5]	94.3	–	85.5	89.4	–	–
[6]	–	111	–	–	97.4	121
[7]	91	–	93.3	88.3	–	–
[8]	–	96.1	–	–	75.2	86.4
[9]	–	80.5	–	–	56.4	61
[10]	–	88.3	–	–	91.8	83.7
[11]	119	–	113	107	–	–
[12]	–	83	–	–	97.1	89
[13]	–	104	–	–	90.6	72.6
[14]	–	86.7	–	–	97	81.1

Conditions	drug sensitivity score
[15]	0
[16]	0
[17]	0
[18]	0
[19]	0
[20]	0
[21]	0.000114
[22]	0
[23]	0
[24]	0

O=c1[nH]c(=O)n([C@H]2C[C@H](O)[C@@H](CO)O2)cc1F [Floxuridine]
normalised viability [%]
Conditions	3 nM	10 nM	30 nM	100 nM	1000 nM	10000 nM
[1]	109	–	79	85.3	–	–
[2]	97.6	–	54.4	52.8	–	–
[3]	–	127	–	–	58.9	38.9
[4]	90.4	–	68.8	62.3	–	–
[5]	107	–	107	69.5	–	–
[6]	–	108	–	–	103	94.8
[7]	111	–	94.8	80.8	–	–
[8]	–	106	–	–	58.1	47.2
[9]	–	97.1	–	–	93.4	55.1
[10]	–	94.4	–	–	16.8	21.1
[11]	108	–	64.4	46.6	–	–
[12]	–	96.5	–	–	67.1	44.8
[13]	–	95.5	–	–	43.7	30.3
[14]	–	88.9	–	–	62.5	44.2

Conditions	drug sensitivity score
[15]	0
[16]	24.7
[17]	17.5
[18]	5.99
[19]	0
[20]	0
[21]	11.1
[22]	17.3
[23]	10.3
[24]	0
